Test results as given in patent US11058668B2 (EIDOS THERAPEUTICS, INC., priority 2018, dated 2021).
Values joined by “and” are separate entries in the source; they are usually repeats but may differ in a detail not shown here. Identical values can stand only once.

What was measured:
TTR [1] = assay: Phase 2 study in ATTR-CM patients, serum TTR concentration (ARUP Prealbumin assay); format: in vivo, human; settings: all genotypes, ATTR-CM patients
Procedure: Screening and randomization will be followed by a 28-day blinded, placebo-controlled treatment period. Approximately 45 subjects are planned to enroll in the Phase 2 study.
An ARUP Prealbumin assay was also used to analyze TTR blood serum concentration in the MAD cohorts tested. ARUP analyzes samples for prealbumin using the prealbumin reagent kit provided by Roche Diagnostics and run on the Roche Diagnostics c702 module. Lowest reportable limit is 3 mg/dL.
The phase 2 clinical study was performed essentially as described in Example 3. A total of 49 patents were included instead of 45: 16 receiving 400 mg bid; 16 receiving 800 mg bid; and 17 receiving placebo.
TTR stabilization was measured ex vivo using the FPE and Western blot assays described at the beginning of the examples section. TTR stabilization was measured in vivo by monitoring TTR serum concentrations in trial participants.

TTR [2] = target: T1, TTR (Canis lupus familiaris, UniProt A0A8I3NFK0); assay: Single oral dose PK-PD in dogs, TTR occupancy by FPE; format: in vivo, beagle dog; settings: 5 or 20 mg/kg AG10 HCl single oral dose
T1 construct: from tissue; host or cells: serum of orally dosed beagle dogs
Procedure: FPE assay for binding TTR in buffer and human or dog serum. […] The FPE probe is a thioester TTR ligand that is not fluorescent by itself, however upon binding to the T4 binding site of TTR it covalently modifies lysine 15 (K15), creating a fluorescent conjugate. Ligands that bind to the T4 site of TTR will decrease FPE probe binding as observed by lower fluorescence. The FPE assay was also adapted for use with dog serum. FPE with TTR in buffer: An aliquot of 98 μL of TTR in PBS (pH 7.4, final concentration: 2.5 μM) was mixed with 1 μL of test compounds (2.5 μM) and 1 μL of FPE probe (0.18 mM stock solution in DMSO: final concentration: 1.8 μM). The change in fluorescence (λex=328 nm and λem=384 nm) were monitored using a microplate spectrophotometer reader (SpectraMax M5) for 6 hr at rt. […] The change in fluorescence (λex=328 nm and λem=384 nm) were monitored using a microplate spectrophotometer reader (SpectraMax M5) for 6 hr at rt.
Blood was collected and analyzed pre-dose and at 2, 4, 6, 8, 12 and 24 hr post-dose.

TTR [3] = target: T2, TTR (Homo sapiens, UniProt P02766); assay: Isothermal titration calorimetry (ITC) with TTR in buffer; settings: 25° C.; for Kd: PBS pH 7.4, single-site binding model
Procedure: (§1) Isothermal Titration Calorimetry (ITC). Binding experiments were performed using MicroCal PEAQ-ITC at 25° C. […] 19 injections of ligand (2.0 μL each) were injected into the ITC cell (at 25° C.) to the point that TTR was fully saturated with ligand. Calorimetric data were plotted and fitted using the standard single-site binding model.

TTR [4] = target: T2, TTR; settings: Tafamidis Phase 2 (FDA CDER background package); diflunisal observational study (Hanson 2018); cited from earlier work
[5] = pKa values of stabilizers; format: physicochemical; settings: carboxylic acid group
[6] = target: T3, human serum albumin (HSA) (Homo sapiens, UniProt P02768); assay: Gel filtration and dialysis binding to human serum albumin; parameters: albumin from human serum; Sigma Aldrich, catalog no.: A3782; purchased Sigma Aldrich A3782; host or cells: human serum; settings: 30 μM compound, 600 μM albumin
Procedure: The concentration of HSA (i.e. concentration at time zero) was also determined using NanoDrop™ (based on calibration curves of known HAS concentrations). […] The concentration of test compounds in these fractions (i.e. conc. at time zero) was evaluated using HPLC (based on calibration curves of known concentration of test compounds). 500 μL of each HSA/test compound samples was then added to a Slide-A-Lyzer Dialysis Cassette G2 (3.5K MWCO, Thermo Scientific, catalog no. P187722). The dialysis Cassettes were placed in 100 ml of assay buffer and stirred at room temperature. After 24 hr, the samples were removed from dialysis cassette and the volume was measured. The concentration of HAS and test compounds were determined using NanoDrop™ and HPLC as described above.

purified human TTRwt = purified human TTRwt (Homo sapiens, UniProt P02766); assay: Modified FPE assay with purified TTR plus other serum proteins (selectivity); format: binding; settings: purified TTR 5 μM
Procedure: The percentage of FPE probe binding to TTR in the presence of serum proteins measured after 3 hr of incubation was used to calculate % TTR occupancy.

[7] = target: T3, human serum albumin (HSA); assay: ITC against human serum albumin; settings: ITC titration against human serum albumin
Procedure: as §1

TTR in human serum = target: T4, TTR in human serum (Homo sapiens, UniProt P02766); assay: FPE assay in human serum; format: binding; settings: stabilizers 10 μM, human serum TTR 5 μM; FPE
T4 construct: pooled human serum (prepared from human male AB plasma, Sigma; catalog no; H4522; TTR concentration 5 μM); tissue Sigma H4522; host or cells: pooled human serum from human male AB plasma
Excerpt: FPE assay for binding TTR in buffer and human or dog serum. […] The FPE probe is a thioester TTR ligand that is not fluorescent by itself, however upon binding to the T4 binding site of TTR it covalently modifies lysine 15 (K15), creating a fluorescent conjugate. Ligands that bind to the T4 site of TTR will decrease FPE probe binding as observed by lower fluorescence. […] The change in fluorescence (λex=328 nm and λem=384 nm) were monitored using a microplate spectrophotometer reader (SpectraMax M5) for 6 hr at rt. […] The change in fluorescence (λex=328 nm and λem=384 nm) were monitored using a microplate spectrophotometer reader (SpectraMax M5) for 6 hr at rt.

T3 sequence (P02768 25-609): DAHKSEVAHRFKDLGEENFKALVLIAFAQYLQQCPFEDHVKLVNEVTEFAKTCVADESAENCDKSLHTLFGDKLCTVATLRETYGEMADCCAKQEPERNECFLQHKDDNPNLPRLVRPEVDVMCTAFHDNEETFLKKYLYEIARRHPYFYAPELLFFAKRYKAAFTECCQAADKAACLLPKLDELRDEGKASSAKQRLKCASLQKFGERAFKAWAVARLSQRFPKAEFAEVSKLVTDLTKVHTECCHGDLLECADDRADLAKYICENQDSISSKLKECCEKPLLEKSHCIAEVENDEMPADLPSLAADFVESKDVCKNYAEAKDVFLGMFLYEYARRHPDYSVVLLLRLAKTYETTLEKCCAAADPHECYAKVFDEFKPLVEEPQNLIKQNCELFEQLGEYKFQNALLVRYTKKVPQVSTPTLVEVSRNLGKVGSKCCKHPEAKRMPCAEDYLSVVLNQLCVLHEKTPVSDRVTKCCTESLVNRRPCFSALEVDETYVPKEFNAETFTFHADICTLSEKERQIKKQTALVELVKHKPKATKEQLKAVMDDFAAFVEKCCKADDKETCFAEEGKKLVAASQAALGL

TΔS (TTR [3])	ΔH (TTR [3])	ΔG (TTR [3])	Kd (TTR [3])	Compound	also measured
				Cc1n[nH]c(C)c1CCCOc1cc(C(=O)O)ccc1F.Cl [AG10 HCl]	Blood Serum TTR Concentration, Average Change (baseline to day 28) (TTR [1]; 400 mg b.i.d.): 36%; Blood Serum TTR Concentration, Average Change (baseline to day 28) (TTR [1]; 800 mg b.i.d.): 50%; TTR occupancy, dose comparison (TTR [2]): enhanced TTR occupancy in the 20 mg/kg vs. 5 mg/kg dose groups
-0.21 kcal/mol	-9.82 kcal/mol	-9.61 kcal/mol	90 ± 14 nM	Cc1n[nH]c(C)c1CCCOc1cc(C(=O)O)ccc1I [compound 1, 3-(3-(3,5-dimethyl-1H-pyrazol-4-yl)propoxy)-4-iodobenzoic acid]	% TTR Occupancy in Serum (2:1 ratio) (TTR in human serum): 75.9 ± 3.1%
2.5 kcal/mol	-6.49 kcal/mol	-8.99 kcal/mol	258 ± 17 nM	COC(=O)c1ccc(F)c(OCCCc2c(C)n[nH]c2C)c1 [compound 2, Methyl 3-(3-(3,5-dimethyl-1H-pyrazol-4-yl)propoxy)-4-fluorobenzoate]	
4.27 kcal/mol	-4.73 kcal/mol	-9.0 kcal/mol	251 ± 12 nM	Cc1nn(C)c(C)c1CCCOc1cc(C(=O)O)ccc1F [compound 3, 4-fluoro-3-(3-(1,3,5-trimethyl-1H-pyrazol-4-yl)propoxy)benzoic acid]	
6.0 kcal/mol	-2.1 kcal/mol	-8.1 kcal/mol	1250 ± 79 nM	CCc1n[nH]c(CC)c1CCCOc1cc(C(=O)O)ccc1F [compound 4, 3-(3-(3,5-diethyl-1H-pyrazol-4-yl)propoxy)-4-fluorobenzoic acid]	

Compound	TΔS (TTR [3])	ΔH (TTR [3])	ΔG (TTR [3])	Kd (TTR [3])	also measured
O=C(O)c1cc(-c2ccc(F)cc2F)ccc1O [Diflunisal, reference compound]	0.34 kcal/mol	-8.38 kcal/mol			change in serum TTR levels (TTR [4]): increased serum TTR levels; pKa [5]: 2.94
O=C(O)c1ccc2nc(-c3cc(Cl)cc(Cl)c3)oc2c1 [Tafamidis, 2-(3,5-dichlorophenyl)-1,3-benzoxazole-6-carboxylic acid, reference compound]	6.39 kcal/mol	-5.0 kcal/mol			concentration bound to HSA following dialysis vs buffer for 24 hr [6]: 18.8 ± 2.1 µM; concentration bound to albumin at time 0 (immediately after gel filtration) [6]: 24.1 ± 1.1 µM; ΔH (TTR [3]; listed as tafamidis): -5.00 kcal/mol and -5.0 kcal/mol; TTR occupancy (purified human TTRwt; in the absence of albumin): 68.2±0.1%; TTR occupancy (purified human TTRwt; in the presence of albumin (600 μM)): 41.5±0.9%; change in serum TTR levels (TTR [4]): increased serum TTR levels; Kd [7]: 2300 nM; pKa [5]: 3.73
